From ChEMBL document CHEMBL5465560, “Selectivity Literature for EUbOPEN Chemogenomic Library” (2024)

Key:
[1] = target: T1, Dual serine/threonine and tyrosine protein kinase (Homo sapiens) (UniProt Q6XUX3); assay: Selectivity interaction (KinomeScan (DiscoverX)) EUB0000229b DSTYK; conditions: at 10 µM
T1 sequence (whole entry): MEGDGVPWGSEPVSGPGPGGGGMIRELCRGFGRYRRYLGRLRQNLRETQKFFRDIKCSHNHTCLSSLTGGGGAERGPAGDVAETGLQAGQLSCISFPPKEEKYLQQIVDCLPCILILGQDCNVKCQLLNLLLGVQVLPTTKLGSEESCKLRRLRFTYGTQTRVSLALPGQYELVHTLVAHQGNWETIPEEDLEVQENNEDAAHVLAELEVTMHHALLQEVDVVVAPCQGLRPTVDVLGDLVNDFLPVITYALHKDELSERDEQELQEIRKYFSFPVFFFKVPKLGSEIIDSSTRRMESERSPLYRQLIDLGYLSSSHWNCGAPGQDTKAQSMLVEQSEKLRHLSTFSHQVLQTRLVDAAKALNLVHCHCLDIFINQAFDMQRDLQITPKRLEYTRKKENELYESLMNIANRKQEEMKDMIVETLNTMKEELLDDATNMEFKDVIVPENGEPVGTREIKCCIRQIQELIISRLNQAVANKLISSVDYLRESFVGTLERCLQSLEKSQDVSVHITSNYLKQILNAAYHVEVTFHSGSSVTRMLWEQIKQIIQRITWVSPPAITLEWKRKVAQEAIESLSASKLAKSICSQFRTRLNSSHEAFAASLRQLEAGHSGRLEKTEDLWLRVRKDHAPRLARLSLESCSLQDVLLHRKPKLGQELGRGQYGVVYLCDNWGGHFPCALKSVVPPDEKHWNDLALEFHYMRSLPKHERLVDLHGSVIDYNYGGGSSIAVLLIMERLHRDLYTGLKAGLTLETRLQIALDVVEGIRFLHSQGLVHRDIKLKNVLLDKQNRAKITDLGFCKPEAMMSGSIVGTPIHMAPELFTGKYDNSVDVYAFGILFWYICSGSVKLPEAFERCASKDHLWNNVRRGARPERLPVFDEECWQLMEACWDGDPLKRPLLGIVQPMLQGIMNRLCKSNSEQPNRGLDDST

[2] = target: Mitogen-activated protein kinase 14 (Homo sapiens, UniProt Q16539); assay: Selectivity interaction (KinomeScan (DiscoverX)) EUB0000695a MAPK14; conditions: at 100 nM
[3] = target: Casein kinase I isoform gamma-1 (Homo sapiens) (UniProt Q9HCP0); assay: Selectivity interaction (KinomeScan (DiscoverX)) EUB0000666a CSNK1G1; conditions: at 10 µM
Casein kinase I isoform gamma-1 (Homo sapiens), sequence (Q9HCP0 whole entry, looked up, canonical isoform): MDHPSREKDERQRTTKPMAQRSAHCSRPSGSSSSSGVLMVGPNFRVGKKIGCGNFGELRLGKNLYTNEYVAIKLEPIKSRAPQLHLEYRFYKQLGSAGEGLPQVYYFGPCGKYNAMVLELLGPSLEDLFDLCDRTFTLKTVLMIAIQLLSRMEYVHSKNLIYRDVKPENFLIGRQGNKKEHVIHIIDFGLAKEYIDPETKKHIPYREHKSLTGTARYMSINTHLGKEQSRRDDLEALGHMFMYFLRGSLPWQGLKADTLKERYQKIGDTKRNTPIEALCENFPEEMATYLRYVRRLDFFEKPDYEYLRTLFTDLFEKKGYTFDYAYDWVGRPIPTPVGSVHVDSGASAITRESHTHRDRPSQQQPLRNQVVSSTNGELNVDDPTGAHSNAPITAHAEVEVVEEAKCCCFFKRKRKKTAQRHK

[4] = target: Homeodomain-interacting protein kinase 3 (Homo sapiens, UniProt Q9H422); conditions: at 10 µM
[5] = target: T2, Serine/threonine-protein kinase Chk1 (Homo sapiens) (UniProt O14757); assay: Selectivity interaction (KinomeScan (DiscoverX)) EUB0001049a CHEK1; conditions: at 1 µM
T2 sequence (whole entry): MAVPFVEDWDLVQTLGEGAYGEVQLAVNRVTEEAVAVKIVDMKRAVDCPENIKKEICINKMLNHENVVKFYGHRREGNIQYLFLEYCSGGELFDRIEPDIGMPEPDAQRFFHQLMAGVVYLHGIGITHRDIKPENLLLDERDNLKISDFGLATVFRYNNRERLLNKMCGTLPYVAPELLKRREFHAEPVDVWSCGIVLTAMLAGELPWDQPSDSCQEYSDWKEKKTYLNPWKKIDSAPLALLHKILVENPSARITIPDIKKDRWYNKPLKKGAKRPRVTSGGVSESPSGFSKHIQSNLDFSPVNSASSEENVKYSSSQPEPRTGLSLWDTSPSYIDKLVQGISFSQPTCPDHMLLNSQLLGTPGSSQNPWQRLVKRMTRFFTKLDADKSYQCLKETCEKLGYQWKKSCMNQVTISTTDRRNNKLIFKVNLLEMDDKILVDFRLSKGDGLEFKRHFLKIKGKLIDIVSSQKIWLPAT

[6] = target: Serine/threonine-protein kinase PAK 2 (Homo sapiens) (UniProt Q13177); assay: Selectivity interaction (KinomeScan (DiscoverX)) EUB0001049a PAK2; conditions: at 1 µM
Serine/threonine-protein kinase PAK 2 (Homo sapiens), sequence (Q13177 whole entry): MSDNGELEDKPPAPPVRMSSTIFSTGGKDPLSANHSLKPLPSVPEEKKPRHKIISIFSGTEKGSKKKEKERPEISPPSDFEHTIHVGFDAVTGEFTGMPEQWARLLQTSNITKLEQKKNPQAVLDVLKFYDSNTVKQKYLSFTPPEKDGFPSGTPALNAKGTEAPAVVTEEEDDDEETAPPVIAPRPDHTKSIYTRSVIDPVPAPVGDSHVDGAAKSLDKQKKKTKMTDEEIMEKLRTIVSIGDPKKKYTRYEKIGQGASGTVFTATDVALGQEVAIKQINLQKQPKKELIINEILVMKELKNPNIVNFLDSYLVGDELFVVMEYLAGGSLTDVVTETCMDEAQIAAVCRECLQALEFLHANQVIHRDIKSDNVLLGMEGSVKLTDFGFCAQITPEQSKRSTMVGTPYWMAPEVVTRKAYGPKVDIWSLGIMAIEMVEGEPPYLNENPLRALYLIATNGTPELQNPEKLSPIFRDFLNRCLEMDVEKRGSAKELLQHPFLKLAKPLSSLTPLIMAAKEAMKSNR

[7] = target: Tyrosine-protein kinase Fer (Homo sapiens) (UniProt P16591); assay: Selectivity interaction (KinomeScan (DiscoverX)) EUB0001049a FER; conditions: at 1 µM
Tyrosine-protein kinase Fer (Homo sapiens), sequence (P16591 whole entry, looked up, canonical isoform): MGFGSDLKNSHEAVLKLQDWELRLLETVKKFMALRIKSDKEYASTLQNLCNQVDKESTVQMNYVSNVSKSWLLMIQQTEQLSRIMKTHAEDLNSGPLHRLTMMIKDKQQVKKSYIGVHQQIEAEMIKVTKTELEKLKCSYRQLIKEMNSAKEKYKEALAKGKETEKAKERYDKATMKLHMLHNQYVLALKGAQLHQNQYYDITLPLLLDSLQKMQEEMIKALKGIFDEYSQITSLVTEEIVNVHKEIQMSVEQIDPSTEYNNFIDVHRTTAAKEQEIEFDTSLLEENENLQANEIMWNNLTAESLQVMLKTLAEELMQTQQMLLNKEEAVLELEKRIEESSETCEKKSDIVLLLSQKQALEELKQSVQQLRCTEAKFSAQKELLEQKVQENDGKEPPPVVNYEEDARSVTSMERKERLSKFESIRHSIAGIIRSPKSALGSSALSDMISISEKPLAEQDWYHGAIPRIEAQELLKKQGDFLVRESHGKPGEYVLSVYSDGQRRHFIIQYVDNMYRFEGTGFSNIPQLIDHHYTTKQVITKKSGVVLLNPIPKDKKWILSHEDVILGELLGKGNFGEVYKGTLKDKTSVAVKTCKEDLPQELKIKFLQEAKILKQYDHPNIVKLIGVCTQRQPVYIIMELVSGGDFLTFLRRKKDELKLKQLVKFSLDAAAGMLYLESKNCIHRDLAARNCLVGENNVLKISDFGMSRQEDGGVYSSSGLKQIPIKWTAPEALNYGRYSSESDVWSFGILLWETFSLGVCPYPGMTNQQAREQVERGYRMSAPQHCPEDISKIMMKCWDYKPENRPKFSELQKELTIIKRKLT

[8] = target: Casein kinase I isoform delta (Homo sapiens, UniProt P48730); assay: Selectivity interaction (Millipore kinase profiler) EUB0000124b CSNK1D; conditions: at 10 µM
[9] = target: Serine/threonine-protein kinase Nek6 (Homo sapiens) (UniProt Q9HC98); assay: Selectivity interaction (KinomeScan (DiscoverX)) EUB0001619a NEK6; conditions: at 1 µM
[10] = target: Insulin receptor (Homo sapiens, UniProt P06213); assay: Selectivity interaction (KinomeScan (DiscoverX)) EUB0000618a INSR; conditions: at 10 µM
Insulin receptor, sequence (P06213 28-758 limits assumed): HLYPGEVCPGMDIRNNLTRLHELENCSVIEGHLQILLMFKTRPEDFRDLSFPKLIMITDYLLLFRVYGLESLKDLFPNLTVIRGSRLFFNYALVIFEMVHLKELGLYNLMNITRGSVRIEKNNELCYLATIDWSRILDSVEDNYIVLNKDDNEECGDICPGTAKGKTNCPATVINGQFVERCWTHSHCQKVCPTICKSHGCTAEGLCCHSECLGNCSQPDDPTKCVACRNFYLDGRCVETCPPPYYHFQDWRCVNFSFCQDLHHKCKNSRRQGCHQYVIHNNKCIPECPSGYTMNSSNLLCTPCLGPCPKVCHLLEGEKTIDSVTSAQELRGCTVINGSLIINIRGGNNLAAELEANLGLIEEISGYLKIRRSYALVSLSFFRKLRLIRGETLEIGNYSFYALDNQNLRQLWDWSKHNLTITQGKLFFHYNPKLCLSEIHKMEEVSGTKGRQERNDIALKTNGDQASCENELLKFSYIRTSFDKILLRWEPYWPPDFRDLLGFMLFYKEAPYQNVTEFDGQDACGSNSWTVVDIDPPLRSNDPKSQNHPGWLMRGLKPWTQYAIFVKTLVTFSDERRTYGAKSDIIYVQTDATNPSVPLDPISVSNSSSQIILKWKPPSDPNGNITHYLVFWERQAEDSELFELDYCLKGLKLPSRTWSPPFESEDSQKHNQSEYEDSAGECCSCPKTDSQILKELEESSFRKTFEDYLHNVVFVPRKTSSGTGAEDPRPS
Insulin receptor, sequence (P06213 763-1382 limits assumed): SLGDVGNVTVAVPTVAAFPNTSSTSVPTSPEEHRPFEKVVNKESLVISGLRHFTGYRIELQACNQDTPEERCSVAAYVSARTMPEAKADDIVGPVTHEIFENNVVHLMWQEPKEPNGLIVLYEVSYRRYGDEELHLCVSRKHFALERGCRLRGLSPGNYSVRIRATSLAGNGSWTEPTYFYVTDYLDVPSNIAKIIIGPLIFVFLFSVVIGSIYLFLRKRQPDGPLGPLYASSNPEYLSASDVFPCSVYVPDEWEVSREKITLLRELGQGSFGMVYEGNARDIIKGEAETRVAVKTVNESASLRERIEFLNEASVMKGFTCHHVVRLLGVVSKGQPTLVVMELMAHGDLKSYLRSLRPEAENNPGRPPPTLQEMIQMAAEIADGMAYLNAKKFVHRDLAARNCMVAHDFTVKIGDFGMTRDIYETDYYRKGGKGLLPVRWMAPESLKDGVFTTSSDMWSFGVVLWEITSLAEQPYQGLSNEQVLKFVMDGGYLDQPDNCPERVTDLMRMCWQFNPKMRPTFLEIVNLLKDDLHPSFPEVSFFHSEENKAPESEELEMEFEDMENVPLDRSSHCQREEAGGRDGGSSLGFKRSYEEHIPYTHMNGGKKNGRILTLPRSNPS

[11] = target: Tyrosine-protein kinase CSK (Homo sapiens) (UniProt P41240); assay: Selectivity interaction (ActivX KiNativ screen (kinase selectivity in THP-1 cell lysates)) EUB0000639a CSK; type: subcellular; conditions: lysate, at 0.04 µM
Tyrosine-protein kinase CSK (Homo sapiens), sequence (P41240 2-450 limits assumed): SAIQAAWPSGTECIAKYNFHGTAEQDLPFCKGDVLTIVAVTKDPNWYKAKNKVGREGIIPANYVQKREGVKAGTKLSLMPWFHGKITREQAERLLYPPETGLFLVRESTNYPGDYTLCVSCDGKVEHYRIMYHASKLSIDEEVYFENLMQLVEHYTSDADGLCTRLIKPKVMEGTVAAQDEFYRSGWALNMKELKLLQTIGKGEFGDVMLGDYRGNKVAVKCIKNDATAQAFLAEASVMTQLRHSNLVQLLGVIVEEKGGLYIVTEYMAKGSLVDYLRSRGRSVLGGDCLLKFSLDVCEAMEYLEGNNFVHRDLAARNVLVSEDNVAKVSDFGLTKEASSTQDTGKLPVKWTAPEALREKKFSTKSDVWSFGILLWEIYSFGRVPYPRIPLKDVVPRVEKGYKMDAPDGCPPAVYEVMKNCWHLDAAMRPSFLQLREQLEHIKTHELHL

[12] = target: Tyrosine-protein kinase FRK (Homo sapiens) (UniProt P42685); assay: Selectivity interaction (KinomeScan (DiscoverX)) EUB0000092b FRK; conditions: at 10 µM
Tyrosine-protein kinase FRK (Homo sapiens), sequence (P42685 whole entry): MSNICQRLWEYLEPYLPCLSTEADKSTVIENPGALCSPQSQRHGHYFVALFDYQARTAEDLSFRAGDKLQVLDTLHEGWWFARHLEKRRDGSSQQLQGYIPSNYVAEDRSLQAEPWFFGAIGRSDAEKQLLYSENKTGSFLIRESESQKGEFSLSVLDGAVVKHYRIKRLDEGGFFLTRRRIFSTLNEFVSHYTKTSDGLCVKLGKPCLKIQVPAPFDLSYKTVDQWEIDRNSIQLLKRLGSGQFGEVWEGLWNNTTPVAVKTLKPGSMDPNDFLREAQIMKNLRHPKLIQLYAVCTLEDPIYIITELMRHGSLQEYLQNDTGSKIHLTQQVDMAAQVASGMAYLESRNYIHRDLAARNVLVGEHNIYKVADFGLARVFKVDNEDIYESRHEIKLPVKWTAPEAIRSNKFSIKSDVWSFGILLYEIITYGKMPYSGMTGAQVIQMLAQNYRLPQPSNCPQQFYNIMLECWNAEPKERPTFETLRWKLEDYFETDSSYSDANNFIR

[13] = target: Ribosomal protein S6 kinase alpha-4 (Homo sapiens) (UniProt O75676); assay: Selectivity interaction (Ambit KINOMEscan and KiNATiv profiling in Jurkat cells) EUB0000090b RPS6KA4; type: cell-based; conditions: at 1 µM
Ribosomal protein S6 kinase alpha-4 (Homo sapiens), sequence (O75676 whole entry, looked up): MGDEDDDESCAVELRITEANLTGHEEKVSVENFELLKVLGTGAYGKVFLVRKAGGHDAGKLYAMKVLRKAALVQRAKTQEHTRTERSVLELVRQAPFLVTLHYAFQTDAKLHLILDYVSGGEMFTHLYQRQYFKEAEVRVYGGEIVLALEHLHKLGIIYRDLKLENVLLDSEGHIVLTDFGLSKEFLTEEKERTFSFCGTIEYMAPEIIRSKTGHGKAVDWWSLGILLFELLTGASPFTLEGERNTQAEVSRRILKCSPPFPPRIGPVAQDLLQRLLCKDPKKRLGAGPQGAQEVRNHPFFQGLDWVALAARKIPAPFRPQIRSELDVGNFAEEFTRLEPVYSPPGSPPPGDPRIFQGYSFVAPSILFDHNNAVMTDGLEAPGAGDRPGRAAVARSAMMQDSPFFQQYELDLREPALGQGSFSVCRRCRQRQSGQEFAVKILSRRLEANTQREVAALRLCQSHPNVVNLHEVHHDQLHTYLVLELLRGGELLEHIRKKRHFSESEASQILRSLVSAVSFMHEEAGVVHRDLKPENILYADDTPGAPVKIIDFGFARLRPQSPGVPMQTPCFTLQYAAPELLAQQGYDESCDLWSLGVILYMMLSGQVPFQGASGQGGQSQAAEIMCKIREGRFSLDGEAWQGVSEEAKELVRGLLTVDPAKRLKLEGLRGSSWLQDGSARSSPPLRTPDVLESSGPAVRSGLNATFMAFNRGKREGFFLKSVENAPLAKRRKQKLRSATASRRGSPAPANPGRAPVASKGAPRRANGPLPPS

Structure (SMILES): COc1cc(N(C)c2ccnc3ccc(C(F)(F)F)cc23)cc(OC)c1OC
- % binding [1]: 82%

Structure (SMILES): Cc1cc(F)c(C(=O)Nc2cccc(-c3nncn3C(C)C)n2)cc1-n1cnc(C2CC2)c1
- % of control [2]: 100%

Structure (SMILES): O=C(NOC[C@H](O)CO)c1ccc(F)c(F)c1Nc1ccc(I)cc1F
- % of control [3]: 61%

Structure (SMILES): Cc1cc([C@@H](C)Nc2ccccc2C(=O)O)c2nc(N3CCOCC3)cc(=O)n2c1 [AZD-6482]
- % of control [4]: 89%

Structure (SMILES): COc1cc(Nc2nc(C)cc(-c3cnn4nc(OC)ccc34)n2)cc(C(F)(F)F)c1
- % of control [5]: 97%
- % of control [6]: 75%
- % of control [7]: 93%

Structure (SMILES): CC(=O)Nc1cccc(-n2c(=O)n(C3CC3)c(=O)c3c(Nc4ccc(I)cc4F)n(C)c(=O)c(C)c32)c1
- % of control [8]: 105%

Structure (SMILES): N#Cc1cccc(-c2c[nH]c3ncnc(N4CCOCC4)c23)c1
- % of control [9]: 100%

Structure (SMILES): O[C@H]1CC[C@H](Nc2ncc3nc(Nc4c(F)cc(F)cc4F)n([C@H]4CCOC4)c3n2)CC1
- % of control [10]: 98%

Structure (SMILES): CC[C@@H]1[C@H](F)C(=O)N[C@@H]1COc1nccc2cc(C(N)=O)c(OC)cc12 [ZIMLOVISERTIB]
- % of inhibition [11]: 7.9%

Structure (SMILES): CCC(=O)N1CCN(c2ccc(-n3c(=O)ccc4cnc5ccc(-c6cnc7ccccc7c6)cc5c43)cc2C(F)(F)F)CC1
- % of control [12]: 60%

Structure (SMILES): CN(C)C/C=C/C(=O)Nc1ccc(C(=O)N2CCCC(Nc3ncc(Cl)c(-c4c[nH]c5ccccc45)n3)C2)cc1 (stereo not drawn)
- % of control [13]: 93%
